Measurements: EP0647627A1, “1,2-Dihydro-2-oxo-3-methylsulfonylaminomethyl-pyridines as angiotensin II antagonists” (MERCK PATENT GmbH, priority 1993, dated 1995)

Test: Angiotensin II antagonism at the rat adrenal gland, IC50 (method of A.T. Chiu et al., J. Pharmacol. Exp. Therap. 250, 867-874 (1989))
Assay type: binding, Ratten
Conditions: an der Rattennebenniere; Iy and Iz tested as K-Salze; read-out: IC 50-Werte
Source text: Diese Wirkungen können nach üblichen in vitro- oder in vivo-Methoden ermittelt werden, wie sie z.B. in der US-PS 4 880 804, der US-PS 5 036 048 und der WO 91/14367 beschrieben sind, ferner von A.T. Chiu et al., J. Pharmacol. Exp. Therap. 250, 867-874 (1989), und von P.C. Wong et al., ibid. 252, 719-725 (1990; in vivo, an Ratten).
So zeigten die K-Salze von 1,2-Dihydro-1-(2'-(1H-5-tetrazolyl)-biphenylyl-4-methyl)-2-oxo-3-N-methyl- bzw. -3-N-isopropyl-N-methylsulfonylaminomethyl-6-butyl-pyridin ("Iy" bzw. "Iz") an der Rattennebenniere (Versuchsmethodik vgl. A.T.Chiu et al., l.c.) IC 50-Werte von 1,15 bzw. 1,9 nM.l-¹, wahrend das bekannte 1,2-Dihydro-1-(2'-(1H-5-tetrazolyl)biphenylyl-4-methyl)-2-oxo-3-methylsulfonylaminomethyl-6-butyl-pyridin (vgl. EP 0 530 702 A1, Beispiel 22) im gleichen Test einen IC 50-Wert von 4,0 nM · l⁻¹ aufwies.

Row | SMILES | IC50 [nM]
1 | CCCCc1ccc(CNS(C)(=O)=O)c(=O)n1Cc1ccc(-c2ccccc2-c2nn[nH]n2)cc1 [EP 0 530 702 A1, Beispiel 22, 1,2-Dihydro-1-(2'-(1H-5-tetrazolyl)biphenylyl-4-methyl)-2-oxo-3-methylsulfonylaminomethyl-6-butyl-pyridin, reference compound] | 4
2 | CCCCc1ccc(CN(C)S(C)(=O)=O)c(=O)n1Cc1ccc(-c2ccccc2-c2nn[nH]n2)cc1 [Iy, 1,2-Dihydro-1-(2'-(1H-5-tetrazolyl)-biphenylyl-4-methyl)-2-oxo-3-N-methyl-N-methylsulfonyl-aminomethyl-6-butyl-pyridin] | 1.15
3 | CCCCc1ccc(CN(C(C)C)S(C)(=O)=O)c(=O)n1Cc1ccc(-c2ccccc2-c2nn[nH]n2)cc1 [Iz, 1,2-Dihydro-1-(2'-(1H-5-tetrazolyl)-biphenylyl-4-methyl)-2-oxo-3-N-isopropyl-N-methylsulfonyl-aminomethyl-6-butyl-pyridin] | 1.9
